Counter-ions that a name gives are not always drawn. Like-named read-outs stand apart in the source and are kept apart here.
Tests used:
Normal Conscious Rat = test: Aquaretic Effects in Normal Conscious Rat (urine volume); format: in vivo, rat (Sprague-Dawley, male)
Method: Aquaretic Effects in Normal Conscious Rat
Studies were performed with Sprague-Dawley male SPF rats (body weight: 240 to 320 g; 8-week-old). In this experiment, each group consisted of not less than 4 animals and rats were fasted over 16 to 20 hours. The animals were acclimatized in metabolic cages for one hour, then each compound to be tested was dissolved in 100% N,N-dimethylformamide or suspended in 5% gum arabic solution and administered to these animals intravenously (iv.) in a dose of 3 mg/kg or orally (p.o.) in a dose of 30 mg/kg. Immediately after the test compound or vehicle were orally administered, saline (25 ml/kg) was given orally. Spontaneous voided urines were collected for 4 hours after the administration of the compound and the amount of the urine were determined. In this case, the control group consisted of animals to which only 5% gum arabic was orally administered.
In addition, known compounds of Comparative Examples 2 and Comparative Examples 3 and 4 represented by the following formulas were used as control compounds.

Vasopressin V1 Receptor = Vasopressin V1 Receptor (Rattus norvegicus, UniProt P30560); test: biochemical; format: binding, rat (Sprague-Dawley, female; liver crude membrane); conditions: for inhibition at 0.1 µM: 1 h, read-out: Binding Rate of Vasopressin V1 Receptor
Method: The livers excised from Sprague-Dawley female rats were cut into small pieces, and were homogenized in 50 mM Tris-HCl, pH 7.4 hereunder referred to as "buffer"). The homogenate was centrifuged at 50000×g, at 4° C. for 20 minutes. The pellet was added the buffer in an amount of 10 times the volume of the pellet, the mixture was recentrifuged by the same method as described above to wash the residue. The buffer was further added to the resulting pellet so that the protein content thereof was adjusted to 10 mg/ml to thus give a crude membrane fraction of rat liver. The crude membrane fraction of rat liver was used in the following test. More specifically, 5000 μg of the crude liver membrane was incubated with [^3 H]-Arg-vasopressin V-1 antagonist ([^3 H) vasopressin V1 antagonist: 2 nM) and various concentration (3×10^-12 to 10^-6) of the test compounds in a 1000 μL of buffer containing 10 mM magnesium chloride, 10 mM potassium chloride and 0.1% bovine serum albumin at 25° C. for 60 minutes. Thereafter the incubation mixture was rapidly filtered by vacuum using a cell harvester. The filters were washed with buffer to remove free ligands and excess buffer, and to thus trap labeled ligand linked with the receptor on the filter paper. The filter paper was sufficiently dried and mixed with a liquid scintillator, and the amount of the [^3 H] vasopressin V1 antagonist bonded to the membrane was determined using a liquid scintillation counter. The inhibition rate at each concentration was calculated according to the following equation:
Inhibition Rate (%)=100-[(B-N)/(B0 -N)]×100
Wherein B represents the amount of the [^3 H] vasopressin V1 antagonist bonded to the membrane in the presence of known amounts of the compound to be tested and the [^3 CH] vasopressin V1 antagonist;
B0 represents the amount of the [^3 H] vasopressin V1 antagonist bonded to the membrane in the absence of the compound to be tested;
N represents the amount of the [^3 H] vasopressin V1 antagonist bonded to the membrane in the presence of an excess of vasopressin (10^-6 M).
The IC50 value (the concentration required to cause 50% inhibition of the specific binding of [^3 H]-V1 antagonist) was determined. […] On the other hand, for the compounds which were investigated only one concentration (10^-7 M), the inhibition rate at that concentration was defined to be the binding rate.

Vasopressin V2 Receptor = Vasopressin V2 Receptor (Rattus norvegicus, UniProt Q00788); test: biochemical; format: binding, rat (Sprague-Dawley, female; kidney crude membrane); conditions: for inhibition at 0.1 µM: 1 h, read-out: Binding Rate of Vasopressin V2 Receptor
[1] = 10^-7 M, inhibition rate at this concentration

Chain of Vasopressin V2 Receptor (Q00788 whole entry): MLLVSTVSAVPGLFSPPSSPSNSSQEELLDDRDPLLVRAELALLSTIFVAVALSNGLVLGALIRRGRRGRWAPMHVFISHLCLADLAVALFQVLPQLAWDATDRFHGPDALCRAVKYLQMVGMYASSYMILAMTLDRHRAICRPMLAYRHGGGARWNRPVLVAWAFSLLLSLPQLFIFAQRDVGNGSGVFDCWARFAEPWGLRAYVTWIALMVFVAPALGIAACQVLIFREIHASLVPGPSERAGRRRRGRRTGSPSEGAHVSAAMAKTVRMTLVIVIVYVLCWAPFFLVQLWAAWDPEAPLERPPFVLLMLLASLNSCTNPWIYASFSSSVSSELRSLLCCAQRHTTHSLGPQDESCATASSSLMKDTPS
Chain of Vasopressin V1 Receptor (P30560 whole entry): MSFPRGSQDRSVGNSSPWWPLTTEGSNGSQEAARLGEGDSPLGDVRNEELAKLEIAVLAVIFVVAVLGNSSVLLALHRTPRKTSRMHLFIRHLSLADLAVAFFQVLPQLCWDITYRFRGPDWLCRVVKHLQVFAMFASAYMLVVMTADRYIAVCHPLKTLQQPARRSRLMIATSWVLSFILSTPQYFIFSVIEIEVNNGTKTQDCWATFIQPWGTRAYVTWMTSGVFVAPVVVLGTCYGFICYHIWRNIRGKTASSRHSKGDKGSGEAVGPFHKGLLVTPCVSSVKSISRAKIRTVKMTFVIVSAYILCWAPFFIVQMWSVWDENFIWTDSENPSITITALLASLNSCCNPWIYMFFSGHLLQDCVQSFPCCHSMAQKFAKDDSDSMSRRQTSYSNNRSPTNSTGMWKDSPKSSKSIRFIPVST

| SMILES | Amount of Urine Volume (Normal Conscious Rat; 3 mg/kg, i.v.) [ml/kg/0-4 hr.] | Amount of Urine Volume (Normal Conscious Rat; 30 mg/kg, p.o.) [ml/kg/0-4 hr.] | inhibition at 0.1 µM (Vasopressin V1 Receptor; [1]) [%] | inhibition at 0.1 µM (Vasopressin V2 Receptor; [1]) [%] | inhibition at 0.1 µM (Vasopressin V1 Receptor) [%] | IC50 (Vasopressin V1 Receptor; [3H] vasopressin V1 antagonist 2 nM, 25° C., 60 minutes, read-out: Affinity for Vasopressin V1 Receptor, IC50) [nM] | inhibition at 0.1 µM (Vasopressin V2 Receptor) [%] | IC50 (Vasopressin V2 Receptor; [3H] vasopressin V2 antagonist 2 nM, 25° C., 60 minutes, read-out: Affinity for Vasopressin V2 Receptor, IC50) [nM] |
| --- | --- | --- | --- | --- | --- | --- | --- | --- |
| Cl.O=C(Nc1ccc(C(=O)N2C[C@H]3C[C@@H](O)CN3Cc3ccccc32)cc1)c1ccccc1-c1ccccc1 [Example 45, (2R,11aR)-2-Hydroxy-10-[4-[(2-Phenylbenzoyl) Amino]Benzoyl]-1,2,3,10,11,11a-Hexahydro-5H-Pyrrolo[2,1-c][1,4]Benzodiazepine Hydrochloride] | 51.4 | 93.9 | – | – | – | – | – | – |
| O=C(Nc1ccc(C(=O)N2CC[C@H]3CCCN3c3ccccc32)cc1)c1ccccc1-c1ccccc1 [Example 51, (3aR)-6-[4-[(2-Phenylbenzoyl) Amino]Benzoyl]-2,3,3a,4,5,6-Hexahydro-1H-Pyrrolo[1,2-a][1,5]Benzodiazepine] | 63.8 | 21.7 | – | – | – | – | – | – |
| CC(=O)O[C@H]1C[C@@H]2CN(C(=O)c3ccc(NC(=O)c4ccccc4-c4ccc(C)cc4)cc3)c3ccccc3N2C1 [Example 16, (2S, 3aR)-2-Acetoxy-5-[4-[[2-(4-Tolyl) Benzoyl]Amino]Benzoyl]-1,2,3,3a,4,5-Hexahydro-Pyrrolo[1,2-a]Quinoxaline] | 71.0 | 72.0 | 68.2 | 100 | – | – | – | – |
| O=C(Nc1ccc(C(=O)N2C[C@@H]3CCCN3C(=S)c3ccccc32)cc1)c1ccccc1-c1ccccc1 [Example 37, (11aS)-10-[4-[(2-Phenylbenzoyl) Amino]Benzoyl]-1,2,3,10,11, 11a-Hexahydro-5H-Pyrrolo[2,1-c][1,4]Benzodiazepin-5-Thione] | 40.7 | 21.1 | 2.8 | 100 | – | – | – | – |
| CC(=O)O[C@H]1C[C@@H]2CN(C(=O)c3ccc(NC(=O)c4ccccc4-c4ccccc4)cc3)c3ccccc3CN2C1 [Example 46, (2S, 11aR)-2-Acetoxy-10-[4-[(2-Phenylbenzoyl) Amino]Benzoyl]-1,2,3,10,11,11a-Hexahydro-5H-Pyrrolo[2,1-c][1,4]Benzodiazepine] | 82.5 | 118.8 | – | – | – | – | – | – |
| CN(C)[C@H]1C[C@H]2CN(C(=O)c3ccc(NC(=O)c4ccccc4-c4ccccc4)cc3)c3ccccc3N2C1.Cl [Example 10, (2S, 3aS)-2-(N,N-Dimethylamino)-5-[4-[(2-Phenylbenzoyl) Amino]Benzoyl]-1,2,3,3a,4,5-Hexahydro-Pyrrolo[1,2-a]Quinoxaline Hydrochloride] | 22.2 | 39.6 | – | – | – | – | – | – |
| Cc1ccc(-c2ccccc2C(=O)Nc2ccc(C(=O)N3C[C@@H]4C[C@H](O)CN4c4ccccc43)cc2)cc1 [Example 8, (2S, 3aS)-2-Hydroxy-5-[4-[[2-(4-Tolyl) Benzoyl]Amino]Benzoyl]-1,2,3,3a,4,5-Hexahydro-Pyrrolo[1,2-a]Quinoxahine] | – | – | 16.3 | 100 | – | – | – | – |
| Cl.O=C(Nc1ccc(C(=O)N2C[C@H]3C[C@H](O)CN3Cc3ccccc32)cc1)c1ccccc1-c1ccccc1 [Example 47, (2S, 11aR)-2-Hydroxy-10-[4-[(2-Phenylbenzoyl) Amino]Benzoyl]-1,2,3,10,11,11a-Hexahydro-5H-Pyrrolo[2,1-c][1,4]Benzodiazepine Hydrochloride] | 79.5 | 109.6 | – | – | 59.8 | 62 | 91.9 | 0.77 |
| O=C(Nc1ccc(C(=O)N2C[C@H]3C[C@H](O)CN3c3ccccc32)cc1)c1ccccc1-c1ccccc1 [Example 17, (2S, 3aR)-2-Hydroxy-5-[4-[(2-Phenylbenzoyl) Amino]Benzoyl]-1,2,3,3a,4,5-Hexahydro-Pyrrolo[1,2-a]Quinoxaline] | 58.6 | 26.3 | 52.4 | 100 | – | – | – | – |
| O=C(Nc1ccc(C(=O)N2C[C@@H]3CCCN3Cc3ccccc32)cc1)c1ccccc1-c1ccccc1 [Example 41, (11aS)-10-[4-[(2-Phenylbenzoyl) Amino]Benzoyl]-1,2,3,10,11, 11a-Hexahydro-5H-Pyrrolo[12,1-c][1,4]Benzodiazepine Hydrochloride] | 29.6 | 73.8 | 6.6 | 92 | – | – | – | – |
| O=C(Nc1ccc(C(=O)N2C[C@@H]3C[C@H](O)CN3c3ccccc32)cc1)c1ccccc1-c1ccccc1 [Example 7, (2S, 3aS)-2-Hydroxy-5-[4-[(2-Phenylbenzoyl) Amino]Benzoyl]-1,2,3,3a,4,5-Hexahydro-Pyrrolo[1,2-a]Quinoxaline] | 29.3 | 33.8 | – | – | – | – | – | – |
| CN(C)[C@H]1C[C@@H]2CN(C(=O)c3ccc(NC(=O)c4ccccc4-c4ccccc4)cc3)c3ccccc3N2C1 [Example 21, (2S, 3aR)-2-(N,N-Dimethylamino)-5-[4-[(2-Phenylbenzoyl) Amino]Benzoyl]-1,2,3,3a,4,5-Hexahydro-Pyrrolo[1,2-a]Quinoxaline] | 47.6 | 81.4 | 19.5 | 100 | – | – | – | – |
| Cc1ccc(-c2ccccc2C(=O)Nc2ccc(C(=O)N3C[C@H]4CCCN4Cc4ccccc43)cc2)cc1 [Example 44, (11aR)-10-[4-[[2-(4-Tolyl) Benzoyl]Amino]Benzoyl]-1,2,3,10,11, 11-Hexahydro-5H-Pyrrolo[2,1-c][1,4]Benzodiazepine Hydrochloride] | 73.0 | 92.8 | 48.2 | 96.7 | – | – | – | – |
| O=C(Nc1ccc(C(=O)N2C[C@@H]3C[C@@H](O)CN3c3ccccc32)cc1)c1ccccc1-c1ccccc1 [Example 3] | 29.5 | 54.0 | – | – | – | – | – | – |
| O=C(Nc1ccc(C(=O)N2C[C@H]3C[C@H](F)CN3c3ccccc32)cc1)c1ccccc1-c1ccccc1 [Example 23, (2S, 3aR)-2-Fluoro-5-[4-[(2-Phenylbenzoyl) Amino]Benzoyl]-1,2,3,3a,4,5-Hexahydro-Pyrrolo[1,2-a]Quinoxaline] | 27.2 | 35.6 | – | – | – | – | – | – |
| O=C(Nc1ccc(C(=O)N2C[C@H]3CCCN3c3ccccc32)cc1)c1ccccc1-c1ccccc1 [Example 11, (3aR)-5-[4-[(2-Phenylbenzoyl) Amino]Benzoyl]-1,2,3,3a,4,5-Hexahydro-Pyrrolo[1,2-a]Quinoxaline] | 56.5 | 69.6 | 34 | 100 | – | – | – | – |
| CC(=O)O[C@H]1C[C@@H]2CCN(C(=O)c3ccc(NC(=O)c4ccccc4-c4ccccc4)cc3)c3ccccc3N2C1 [Example 53, (2S, 3aS)-2-Acetoxy-6-[4-[(2-Phenylbenzoyl) Amino]Benzo]-2,3,3a,4,5,6-Hexahydro-1H-Pyrrolo[1,2-a][1,5]Benzodiazepine] | – | – | 63.8 | 97.9 | – | – | – | – |
| Cc1ccc(-c2ccccc2C(=O)Nc2ccc(C(=O)N3C[C@H]4CCCN4c4ccccc43)cc2)cc1 [Example 12, (3aR)-5-[4-[[2-(4-Tolyl) Benzoyl]Amino]Benzoyl]-1,2,3,3a,4,5-Hexahydro-Pyrrolo[1,2-a]Quinoxaline] | 66.0 | 12.8 | – | – | – | – | – | – |
| Cc1ccccc1C(=O)Nc1ccc(C(=O)N2Cc3cccn3Cc3ccccc32)cc1 [Comp. Ex. 4, reference compound] | 34.8 | 22.6 | – | – | – | – | – | – |
| CN(C)C1CC2CCN(C(=O)c3ccc(NC(=O)c4ccccc4-c4ccccc4)cc3)c3ccccc3N2C1.Cl [Example 56, (2S, 3aR)-2-(N,N-dimethylamino)-6-[4-[(2-phenylbenzoyl)amino]benzoyl]-2,3,3a,4,5,6-hexahydro-1H-Pyrrolo[1,2-a][1,5]benzodiazepinehydrochloride] | 87.4 | 116.4 | – | – | – | – | – | – |
| Cc1ccc(-c2ccccc2C(=O)Nc2ccc(C(=O)N3C[C@H]4C[C@@H](O)CN4c4ccccc43)cc2)cc1 [Example 14, (2R,3aR)-2-Hydroxy-5-[4-[[2-(4-Tolyl) Benzoyl]Amino]Benzoyl]-1,2,3,3a-4,5-Hexahydro-Pyrrolo[1,2-a]Quinoxaline] | 60.6 | 90.3 | – | – | – | – | – | – |
| O=C(Nc1ccc(C(=O)N2C[C@@H]3CCCN3c3ccccc32)cc1)c1ccccc1-c1ccccc1 [Example 1, (3aS)-5-[4-[(2-Phenylbenzoyl)Amino]Benzoyl]-1,2,3,3a,4,5-Hexahydro-Pyrrolo[1,2-a]Quinoxaline] | 33.1 | 40.3 | – | – | – | – | – | – |

— patent publication US6225306A, “Biphenyl derivatives and drug composition” (Wakamoto Pharmaceutical Co., Ltd., priority 1997, dated 2001)
